Values quoted from earlier work in patent publication US6436889B1, “Detergent compositions” (Unilever Home & Personal Care USA division of Conopco, Inc., priority 1999, dated 2002).
Like-named read-outs stand apart in the source and are kept apart here.

[1] = at 20° C., other common materials

Water Solubility (grams of solid required to form a saturated solution in 100 grams of water at 20° C., highly water-soluble materials)	Compound	Water Solubility [1]
>100 g/100 g	NC(N)=O [Urea]	
	O=P(O)(O)OP(=O)(O)OP(=O)(O)O [Sodium tripolyphosphate anhydrous]	15 g/100 g
	O=BO[O-].[Na+] [Sodium perborate anhydrous]	3.7 g/100 g
